Where two headings read alike, the source gives them in different places.
Columns and labels:
LNCaP cells = assay: cell viability (MTS) assay, LNCaP prostate cancer cells; type: cell-based; conditions: Homo sapiens, drugs 0.01 to 300 μM, OD490, read-out: IC50 to reduce LNCaP cell number
Description: (§1) The index of cell growth repression ratio was obtained by comparing the OD490 data of treatment group to the negative control. The drug response rate IC50 was calculated with the SPSS 16.0 system. Cell culture: Prostate cancer cell lines LNCaP and PC-3 were purchased from ATCC (Manassas, Va.). The fetal hepatocytes HL-7002 and human embryonic kidney cells […] were purchased from ATCC. The cells were cultured in RPMI+5% Fetal Bovine Serum (FBS). […] The cells treated with the solvents were used as the negative control, and cisplatin and docetaxel were used as the positive controls. The cells were monitored daily, and the cell viability was evaluated with the Promega CellTiter 96 AQueous One Solution Cell Proliferation Assay (Promega, Madison, Wis., USA) according to the manufacture manuals. The cell viability was monitored at OD490 reading in a bio-spectrometer (Perkin Elmer, Walthan, Mass., USA). Data analysis: The OD490 reading data were collected hourly from 1 h to 4 h after the addition of lysis buffer. The index of cell growth repression ratio was obtained by comparing the OD490 data of treatment to the negative control. The drug response rate IC50 was calculated with the SPSS 16.0.

PC-3 cells = assay: cell viability (MTS) assay, PC-3 prostate cancer cells; type: cell-based; conditions: Homo sapiens, drugs 0.01 to 300 μM, OD490, read-out: IC50 to reduce PC-3 cell number
Description: as §1, with “Cell culture: Prostate cancer cell lines LNCaP and PC-3 were purchased from ATCC (Manassas, Va.).” left out

HEK293 cells = assay: cell viability (MTS) assay, embryonic kidney cell line HEK293; type: cell-based, human; conditions: HEK293 immortalized fetal kidney cells, 0.01 to 300 μM, OD490, read-out: IC50 to reduce HEK293 cells
Description: HEK293 cells are an immortalized human fetal kidney cell line. […] The index of cell growth repression ratio was obtained by comparing the OD490 data of treatment group to the negative control. The drug response rate IC50 was calculated with the SPSS 16.0 system.
(§2) Cell culture: Prostate cancer cell lines LNCaP and PC-3 were purchased from ATCC (Manassas, Va.). The fetal hepatocytes HL-7002 and human embryonic kidney cells […] were purchased from ATCC. The cells were cultured in RPMI+5% Fetal Bovine Serum (FBS).
(§3) The cells treated with the solvents were used as the negative control, and cisplatin and docetaxel were used as the positive controls. The cells were monitored daily, and the cell viability was evaluated with the Promega CellTiter 96 AQueous One Solution Cell Proliferation Assay (Promega, Madison, Wis., USA) according to the manufacture manuals. The cell viability was monitored at OD490 reading in a bio-spectrometer (Perkin Elmer, Walthan, Mass., USA).
(§4) Data analysis: The OD490 reading data were collected hourly from 1 h to 4 h after the addition of lysis buffer. The index of cell growth repression ratio was obtained by comparing the OD490 data of treatment to the negative control. The drug response rate IC50 was calculated with the SPSS 16.0.
(§5) The index of cell growth repression ratio was obtained by comparing the OD490 data of treatment group to the negative control. The drug response rate IC50 was calculated with the SPSS 16.0 system.
(§6) Cell culture: Colorectal cancer cell lines HCT-116 and HT29 were purchased from ATCC (Manassas, Va.). The fetal hepatocytes HL-7002 and human embryonic kidney cells […] were purchased from ATCC. The cells were cultured in RPMI+5% Fetal Bovine Serum (FBS).

HT29 cells = assay: cell viability (MTS) assay, HT29 colorectal cancer cells; type: cell-based; conditions: OD490, read-out: IC50 to reduce HT29 cell number
Description: HT29 cells are a colorectal cancer cell line. […] The index of cell growth repression ratio was obtained by comparing the OD490 data of treatment group to the negative control. The drug response rate IC50 was calculated with the SPSS 16.0 system.
as §6, §3, §4

HCT-116 cells = assay: cell viability (MTS) assay, HCT-116 colorectal cancer cells; type: cell-based; conditions: drugs 0.01 to 300 μM, OD490, read-out: IC50 to reduce HCT-116 cell number
Description: HCT-116 cells are a colorectal cancer cell line. […] The index of cell growth repression ratio was obtained by comparing the OD490 data of treatment group to the negative control. The drug response rate IC50 was calculated with the SPSS 16.0 system.
as §6, §3, §4

HL-7002 cells = assay: cell viability (MTS) assay, fetal hepatocytes HL-7002; type: cell-based, human; conditions: HL-7002 immortalized fetal hepatic cells, 0.01 to 300 μM, OD490, read-out: IC50 to reduce HL-7002 cell number
Description: as §5, §2, §3, §4
The index of cell growth repression ratio was obtained by comparing the OD490 data of treatment group to the negative control. The drug response rate IC50 was calculated with the SPSS 16.0 system. […]

IC50 (HT29 cells; Homo sapiens, HT-29, drugs 0.01 to 300 μM) [µM] | IC50 (HCT-116 cells; Homo sapiens) [µM] | SMILES | IC50 (LNCaP cells) [µM] | IC50 (PC-3 cells) [µM] | IC50 (HEK293 cells; Homo sapiens) [µM] | IC50 (HT29 cells; drugs 0.01 to 300 μM) [µM] | IC50 (HCT-116 cells) [µM] | IC50 (HL-7002 cells) [µM] | IC50 (HEK293 cells) [µM] | IC50 (HL-7002 cells; Homo sapiens, Hepatocyte) [µM]
– | – | CC(=O)O[C@@]12CO[C@@H]1C[C@H](O)[C@@]1(C)C(=O)[C@H](O)C3=C(C)[C@@H](OC(=O)[C@H](O)[C@@H](NC(=O)OC(C)(C)C)c4ccccc4)C[C@@](O)([C@@H](OC(=O)c4ccccc4)[C@H]21)C3(C)C [docetaxel] | 4.03 | 49.9 | 1.74 | – | – | – | – | –
– | – | O=C1[O][Pt]2([NH][C@@H]3CCCC[C@H]3[NH]2)[O]C1=O [oxaliplatin] | – | – | – | 30 | 8.15 | 2.44 | 10.1 | –
7.56 | 4.21 | O=c1[nH]cc(F)c(=O)[nH]1 [5-FU, fluorouracil] | – | – | 3.74 | – | – | – | – | 4.42

From patent US10421770B2, “Pharmaceutical composition of carboplatin based co-crystals and use thereof” (SYN-NAT PRODUCTS ENTERPRISE LLC, priority 2015, dated 2019)
